Assay: Tissue distribution study by measurement of radioactivity across whole-body sections
Type: in vivo, male Sprague-Dawley rats
Conditions: for radioactivity bound by the kidney (elimination organ): first minutes following the injection; for tissue distribution of radioactivity: target organs/tissues: labelled molecule, rat whole-body sections
Protocol: Pharmacokinetic Study: Tissue Distribution Study
This study was carried out with molecules labelled with ^14C. The tissue distribution study was carried out by direct measurement of the radioactivity across whole-body sections in accordance with the following method: male Sprague-Dawley rats were administered intravenously or orally with a dose of the labelled molecule. Then, at times ranging from 5 minutes to 24 hours after the administration, the animals were sacrificed by ether inhalation and frozen in liquid nitrogen.
Sections were then prepared using a cryomicrotome and, after desiccation, the distribution of radioactivity was measured using an image analyser.

| SMILES | radioactivity bound by the kidney (elimination organ) | tissue distribution of radioactivity: target organs/tissues (after injection) | affinity for cartilage (administration of the labelled molecule by the oral route) | time of maximum binding to cartilage (after injection) | affinity of cartilage versus surrounding tissues (after injection of labelled molecule) |
| --- | --- | --- | --- | --- | --- |
| C[N+](C)(C)CC(=O)N[C@H]1C(O)O[C@H](CO)[C@@H](O)[C@@H]1O.[Cl-] (stereo partly drawn) [Example 4, 2-(N,N,N-trimethylammonioacetamido)-2-deoxy-α,β-D-glucopyranose chloride] | binds significant amounts of radioactivity | cartilage, and to a lesser degree skin, are the only targets | – | – | – |
| O=C(C[n+]1ccccc1)N[C@H]1C(O)O[C@H](CO)[C@@H](O)[C@@H]1O.[Cl-] (stereo partly drawn) [Example 5, 2-(Pyridinioacetamido)-2-deoxy-α,β-D-glucopyranose chloride] | binds significant amounts of radioactivity | cartilage, and to a lesser degree skin, are the only targets | – | – | – |
| CN1C(C(=O)NCCC[N+](C)(C)C)=C(O)c2ccccc2S1(=O)=O.[I-] [Example 6, {3-[(4-Hydroxy-2-methyl-1,1-dioxide-2H-1,2-benzothiazin-3-yl)-carboxamido]propyl}trimethylammonium iodide] | – | – | very high affinity for cartilage | 5 min | cartilage exhibits a far greater affinity than the surrounding tissues |
| N[C@H]1C(O)O[C@H](CO)[C@@H](O)[C@@H]1O (some centres unmarked) [glucosamine, reference compound] | – | the liver is the main target organ | – | – | – |

— patent publication US7008613B2, “Quaternary ammonium compounds” (Les Laboratoires Servier, priority 1999, dated 2006)
